Tested on: Adult houseflies
Experiment: Knock-down test on adult houseflies, oil solution sprayed into a cubic chamber
Assay type: in vivo
Conditions: 0.7 ml of 0.025% oil solution sprayed in 70 cm cubic chamber; 5 male and 5 female adult houseflies; counted for 10 minutes; average of two repeats
Excerpt: A solution of 0.025 part of Present Compound 1 to 6 dissolved with 10 parts of dichloromethane was mixed with […] parts of deodorized kerosene to give a 0.025% oil solution.
Adult houseflies (5 males and 5 females) were left in a cubic chamber (70 cm at side). Seven-tenths (0.7) ml of the 0.025% oil solution of Present Compound 1 to 6 prepared above was sprayed with a spray gun at a pressure of 8.8×10^4 Pa from a small window on the side of the chamber. Then, the number of the knocked-down insects was counted at times for 10 minutes. The time for knocking down half of the tested insects (KT50) was calculated from the result.
Furthermore, the test was similarly done by using (4-methoxymethyl-2,3,5,6-tetrafluoro)phenylmethyl [1R[1α, 3β(Z)]]-2,2-dimethyl-3-(2-fluoro-3-methoxy-3-oxopropenyl)cyclopropanecarboxylate (hereinafter, referred to as Comparative Compound):
[drawing 12] described in GB patent publication 2,268,740 as a comparative compound. The tests were done twice repeat, and the KT50 values were calculated from the averages.

COCc1c(F)c(F)c(COC(=O)C2C(/C=C(\C#N)C(=O)OC(C)(C)C)C2(C)C)c(F)c1F (stereo not shown) [Present Compound 6, 4-methoxymethyl-2,3,5,6-tetrafluorobenzyl 2,2-dimethyl-3-((E)-2-cyano-3-t-butyloxy-3-oxo-1-propenyl) cyclopropanecarboxylate]
KT50 (time for knocking down half of the tested insects): 3.4 min

COCc1c(F)c(F)c(COC(=O)C2C(/C=C(\C#N)C(=O)OC)C2(C)C)c(F)c1F (stereo not shown) [Present Compound 2, 4-methoxymethyl-2,3,5,6-tetrafluorobenzyl 2,2-dimethyl-3-((E)-2-cyano-3-methoxy-3-oxo-1-propenyl) cyclopropanecarboxylate]
KT50 (time for knocking down half of the tested insects): 1.9 min

C=CCOC(=O)/C(C#N)=C/C1C(C(=O)OCc2c(F)c(F)c(COC)c(F)c2F)C1(C)C (stereo not shown) [Present Compound 4, 4-methoxymethyl-2,3,5,6-tetrafluorobenzyl 2,2-dimethyl-3-((E)-2-cyano-3-allyloxy-3-oxo-1-propenyl) cyclopropanecarboxylate]
KT50 (time for knocking down half of the tested insects): 4.3 min

CCCOC(=O)/C(C#N)=C/C1C(C(=O)OCc2c(F)c(F)c(COC)c(F)c2F)C1(C)C (stereo not shown) [Present Compound 3, 4-methoxymethyl-2,3,5,6-tetrafluorobenzyl 2,2-dimethyl-3-((E)-2-cyano-3-propoxy-3-oxo-1-propenyl) cyclopropanecarboxylate]
KT50 (time for knocking down half of the tested insects): 4.1 min

COCc1c(F)c(F)c(COC(=O)C2C(/C=C(\F)C(=O)OC)C2(C)C)c(F)c1F (stereo not drawn) [Comparative Compound, (4-methoxymethyl-2,3,5,6-tetrafluoro)phenylmethyl [1R[1α, 3β(Z)]]-2,2-dimethyl-3-(2-fluoro-3-methoxy-3-oxopropenyl)cyclopropanecarboxylate, reference compound]
KT50 (time for knocking down half of the tested insects): >10 min

COCc1c(F)c(F)c(COC(=O)C2C(/C=C(\C#N)C(=O)OC(C)C)C2(C)C)c(F)c1F (stereo not shown) [Present Compound 5, 4-methoxymethyl-2,3,5,6-tetrafluorobenzyl 2,2-dimethyl-3-((E)-2-cyano-3-isopropoxy-3-oxo-1-propenyl) cyclopropanecarboxylate]
KT50 (time for knocking down half of the tested insects): 1.5 min

CCOC(=O)/C(C#N)=C/C1C(C(=O)OCc2c(F)c(F)c(COC)c(F)c2F)C1(C)C (stereo not shown) [Present Compound 1, 4-methoxymethyl-2,3,5,6-tetrafluorobenzyl 2,2-dimethyl-3-((E)-2-cyano-3-ethoxy-3-oxo-1-propenyl) cyclopropanecarboxylate]
KT50 (time for knocking down half of the tested insects): 1.5 min

From patent publication US7217682B2, “Cyclopropanecarboxylic acid esters and pest controllers containing the same” (Sumitomo Chemical Company, Limited, priority 2001, dated 2007)
